Measurements from patent US12378211B2, “Carbonic anhydrase inhibitors and antibiotics against multidrug resistant bacteria” (Purdue Research Foundation, priority 2018, dated 2025).
≈ marks a conversion by molar mass, not a printed value. Read-outs that look alike come from different tables or passages of the source. Blank lines part the entries; values can stand above or below the molecule they belong to.

Columns and labels:
[1] = tested on: Enterococcus faecium E417-HM-965; assay: MIC of CAIs in BHIB and TSB; type: cell-based
Description: (§1) The minimum inhibitory concentrations (MICs) of CAIs were tested against clinical isolates of vancomycin sensitive and vancomycin resistant Enterococci strains as per the guidelines provided by the Clinical and Laboratory Standards Institute (CLSI). The selected strains of Enterococci were streaked on Tryptic Soy Agar (TSA) plates and let grow for 24 hours at 37° C. Afterwards, a bacterial solution equivalent to 0.5 McFarland standard was prepared and diluted in tryptone soy broth (TSB) or brain heart infusion broth (BHIB) to achieve a bacterial concentration of about 5×10^5 CFU/mL and seeded in 96-well well plates. Compounds and control drugs were added in the first row of the 96-well plates and serially diluted along the plates. Plates were then incubated aerobically at 37° C. for 18-20 hours. MICs reported in Table 5 are the minimum concentration of the compounds/control drugs that could inhibit completely the visual growth of the bacteria.

[2] = tested on: Enterococcus faecium Patient #2-1-NR-31909; assay: MIC of CAIs in BHIB and TSB; type: cell-based
Description: as §1

[3] = tested on: Enterococcus fecalis Strain SF 24397 NR31970; assay: MIC of CAIs in BHIB and TSB; type: cell-based
Description: as §1

[4] = tested on: Enterococcus faecalis—S613 HM-334; assay: MIC of CAIs in BHIB and TSB; type: cell-based
Description: as §1, with “bacteria. The MIC values of CAIs against the tested VRE strains were higher in BHIB than in TSB. This may be due to binding of these drugs to proteins. […] They inhibited the VRE strains at MIC values ranging from 1 to 4 μg/mL.” for “bacteria.”

[5] = tested on: Enterococcus faecalis-S613 HM-334; assay: MIC in presence of 4% human serum albumin; type: cell-based; conditions: TSB supplemented with 4% human serum albumin
Description: as §1, with “against” for “against clinical isolates of vancomycin sensitive and”, “resistant Enterococcus faecalis—S613 HM 334 strain” for “resistant Enterococci strains”, “selected strain was” for “selected strains of Enterococci were”, “(TSA) plate” for “(TSA) plates”, “(TSB) supplemented with 4% human serum albumin (HAS)” for “(TSB) or brain heart infusion broth (BHIB)”, “in table (6)” for “in Table 5”

[6] = tested on: Enterococcus faecalis—S613 HM-334; assay: MIC, broth microdilution in TSB; type: cell-based; conditions: Enterococcus
Description: (§2) The minimum inhibitory concentrations (MICs) of the compounds and control drugs were determined using the broth microdilution method, according to guidelines outlined by the Clinical and Laboratory Standards Institute (CLSI). Enterococci strains were grown aerobically overnight on tryptone soya agar plates at 37° C., afterwards a bacterial solution equivalent to 0.5 McFarland standard was prepared and diluted in tryptone soy broth (TSB) to achieve a bacterial concentration of about 5×10^5 CFU/mL and seeded in 96-well well plates. Compounds and control drugs were added in the first row of the 96-well plates and serially diluted along the plates. Plates were then incubated aerobically at 37° C. for 18-20 hours. MICs reported in Table 1 are the minimum concentration of the compounds/control drugs that could inhibit completely the visual growth of the bacteria.

[7] = tested on: Enterococcus faecium E417-HM-965; assay: MIC, broth microdilution in TSB; type: cell-based; conditions: Enterococcus faecium
Description: as §2

[8] = tested on: Enterococcus faecium Patient #2-1-NR-31909; assay: MIC, broth microdilution in TSB; type: cell-based; conditions: Enterococcus faecium
Description: as §2

[9] = tested on: Enterococcus faecium Patient #3-1 NR-31912; assay: MIC, broth microdilution in TSB; type: cell-based; conditions: Enterococcus faecium
Description: as §2

[10] = tested on: Enterococcus fecalis Strain MMH594-NR31975; assay: MIC, broth microdilution in TSB; type: cell-based; conditions: Enterococcus
Description: as §2

[11] = tested on: Enterococcus fecalis Strain SF 24397 NR31970; assay: MIC, broth microdilution in TSB; type: cell-based; conditions: Enterococcus
Description: as §2

[12] = tested on: Enterococcus fecalis Strain SF 28073-NR31972; assay: MIC, broth microdilution in TSB; type: cell-based; conditions: Enterococcus
Description: as §2

[13] = tested on: Enterococcus fecalis Strain SF24413 NR31971; assay: MIC, broth microdilution in TSB; type: cell-based; conditions: Enterococcus
Description: as §2

[14] = tested on: MRSA NRS 384 (MRSA USA300); assay: MIC against Staphylococci, broth microdilution; type: cell-based, Staphylococcus aureus; conditions: Staphylococcus aureus
Description: as §2, with “Institute (CLSI) 1. Staphylococci” for “Institute (CLSI). Enterococci”, “Table 2” for “Table 1”

[15] = tested on: Staphylococcus epidermidis NRS 101; assay: MIC against Staphylococci, broth microdilution; type: cell-based; conditions: Staphylococcus epidermidis, NRS101
Description: as §2, with “Institute (CLSI) 1. Staphylococci” for “Institute (CLSI). Enterococci”, “Table 2” for “Table 1”

[16] = tested on: Bacteroides dorei—CL02T12C06 HM-719; assay: MIC against human normal gut microbiota; type: cell-based; conditions: Bacteroides
Description: (§3) Three different bacterial strains were used in this experiment; Bifidobacterium (anaerobic Gram positive bacteria), Bacteroides (anaerobic Gram negative bacteria) and Lactobacillus (microaerophilic Gram positive bacteria). Bifidobacterium and Bacteroides were first grown for 48 hours at 37° C., anaerobically using brain heart infusion supplemented (BHIS) agar (Brain heart infusion agar supplemented with hemin, vitamin K and L-cysteine). Lactobacillus was cultivated on MRS agar and incubated in presence of 5% CO2 for 48 hours at 37° C. Each bacterium was suspended in phosphate buffered saline (PBS) to produce a suspension with optical density that matches 0.5 McFarland standard and diluted in brain heart infusion supplemented broth (for Bifidobacterium and Bacteroides) or in MRS broth (for Lactobacillus) to achieve bacterial concentration of approximately 5×10^5 CFU/ml. Bacteria were then seeded in 96-well plates containing serial dilutions of the compounds and incubated as mentioned previously for 48 hours.

[17] = tested on: Bacteroides fragilis—CL07T00C01 HIM-709; assay: MIC against human normal gut microbiota; type: cell-based; conditions: Bacteroides
Description: as §3

[18] = tested on: Bifidobacterium breve—JCP7499 HIM 1120; assay: MIC against human normal gut microbiota; type: cell-based; conditions: Bifidobacterium
Description: as §3

[19] = tested on: Bifidobacterium longum subsp. Longum—44B HM 845; assay: MIC against human normal gut microbiota; type: cell-based; conditions: Bifidobacterium longum
Description: as §3

[20] = tested on: Lactobacillus casei ATCC 334; assay: MIC against human normal gut microbiota; type: cell-based; conditions: Lacticaseibacillus casei
Description: as §3

[21] = tested on: Lactobacillus gasseri EX336960VC03 HIM-400; assay: MIC against human normal gut microbiota; type: cell-based; conditions: Lactobacillus gasseri
Description: as §3

[22] = Enterococcus faecium, E417HM965, BHIB, read-out: MIC
[23] = Enterococcus faecium, E417HM965, TSB, Table 5, read-out: MIC
[24] = Enterococcus faecium, BHIB, read-out: MIC
[25] = Enterococcus faecium, TSB, Table 5, read-out: MIC
[26] = Enterococcus, BHIB, read-out: MIC
[27] = Enterococcus, TSB, Table 5, read-out: MIC
[28] = Enterococcus, BHIIB, read-out: MIC
[29] = TSB, Table 7, read-out: MIC in TSB
[30] = BHIS broth, anaerobic, 48 hours, read-out: MIC

MIC [1, 22]: 16 µg/mL
MIC [1, 23]: 2 µg/mL
MIC [2, 24]: 64 µg/mL
MIC [2, 25]: 2 µg/mL
MIC [3, 26]: > 128 µg/mL
MIC [3, 27]: 2 µg/mL
MIC [4, 28]: > 128 µg/mL
MIC [4, 27]: 1 µg/mL
MIC ([5]; Enterococcus, read-out: MIC): > 256 µg/mL
Structure (SMILES): CCOc1ccc2nc(S(N)(=O)=O)sc2c1 [Ethoxzolamide]

MIC ([1]; BHIB): 16 µg/mL
MIC ([1]; TSB, Table 5): 1 µg/mL
MIC ([2]; BHIB): >128 µg/mL
MIC ([2]; TSB, Table 5): 2 µg/mL
MIC ([3]; BHIB): >128 µg/mL
MIC ([3]; TSB, Table 5): 16 µg/mL
MIC ([4]; BHIIB): >128 µg/mL
MIC ([4]; TSB, Table 5): 16 µg/mL
MIC [5]: >256 µg/mL
Structure (SMILES): NS(=O)(=O)c1cc(Cl)c(Cl)c(S(N)(=O)=O)c1 [Dichlophenamide]

MIC [1, 22]: 64 µg/mL
MIC [1, 23]: 4 µg/mL
MIC [2, 24]: > 128 µg/mL
MIC [2, 25]: 8 µg/mL
MIC [3, 26]: > 128 µg/mL
MIC [3, 27]: 2 µg/mL
MIC [4, 28]: > 128 µg/mL
MIC [4, 27]: 1 µg/mL
MIC ([5]; Enterococcus, read-out: MIC): > 256 µg/mL
Structure (SMILES): CC(=O)/N=c1/sc(S(N)(=O)=O)nn1C [Methazolamide]

MIC [1, 22]: 16 µg/mL
MIC [1, 23]: 2 µg/mL
MIC [2, 24]: > 128 µg/mL
MIC [2, 25]: 4 µg/mL
MIC [3, 26]: > 128 µg/mL
MIC [3, 27]: 2 µg/mL
MIC [4, 28]: > 128 µg/mL
MIC [4, 27]: 2 µg/mL
MIC ([5]; Enterococcus, read-out: MIC): > 256 µg/mL
Structure (SMILES): CCN[C@H]1CN(CCCOC)S(=O)(=O)c2sc(S(N)(=O)=O)cc21 [Brinzolamide]

Structure (SMILES): CN[C@H](CC(C)C)C(=O)N[C@H]1C(=O)N[C@@H](CC(N)=O)C(=O)N[C@H]2C(=O)N[C@H]3C(=O)N[C@H](C(=O)N[C@H](C(=O)O)c4cc(O)cc(O)c4-c4cc3ccc4O)[C@H](O)c3ccc(c(Cl)c3)Oc3cc2cc(c3O[C@@H]2O[C@H](CO)[C@@H](O)[C@H](O)[C@H]2O[C@H]2C[C@](C)(N)[C@H](O)[C@H](C)O2)Oc2ccc(cc2Cl)[C@H]1O [Vancomycin, reference compound]
MIC [6]: > 64 µg/mL
MIC ([6]; read-out: MIC in TSB): > 64 µg/mL
MIC ([7]; E417HM965): > 64 µg/mL
MIC ([7]; E417HM965, read-out: MIC in TSB): > 64 µg/mL
MIC [8]: > 64 µg/mL
MIC ([8]; read-out: MIC in TSB): > 64 µg/mL
MIC [9]: > 64 µg/mL
MIC ([9]; read-out: MIC in TSB): > 64 µg/mL
MIC [10]: 2 µg/mL (≈ 1.38 µM)
MIC ([10]; read-out: MIC in TSB): 2 µg/mL (≈ 1.38 µM)
MIC [11]: 2 µg/mL (≈ 1.38 µM)
MIC ([11]; read-out: MIC in TSB): 2 µg/mL (≈ 1.38 µM)
MIC [12]: > 64 µg/mL
MIC ([12]; read-out: MIC in TSB): > 64 µg/mL
MIC [13]: 32 µg/mL (≈ 22.1 µM)
MIC ([13]; read-out: MIC in TSB): 32 µg/mL (≈ 22.1 µM)
MIC [14]: 1 µg/mL (≈ 0.69 µM)
MIC [15]: 4 µg/mL (≈ 2.76 µM)
MIC ([16]; 48 h): 64 µg/mL (≈ 44.2 µM)
MIC ([17]; 48 h): 64 µg/mL (≈ 44.2 µM)
MIC ([18]; 48 h): 8 µg/mL (≈ 5.52 µM)
MIC ([19]; 48 h): 8 µg/mL (≈ 5.52 µM)
MIC ([20]; ATCC334, 48 h): > 64 µg/mL
MIC ([21]; 48 h): > 64 µg/mL
MIC ([1]; Enterococcus faecium, E417HM965): > 128 µg/mL
MIC ([1]; TSB, Table 5): >128 µg/mL
MIC ([2]; Enterococcus faecium): > 128 µg/mL
MIC ([2]; TSB, Table 5): >128 µg/mL
MIC ([3]; Enterococcus): 2 µg/mL
MIC ([3]; TSB, Table 5): 2 µg/mL
MIC ([4]; Enterococcus): > 128 µg/mL
MIC ([4]; TSB, Table 5): >128 µg/mL

Structure (SMILES): NS(=O)(=O)c1nnc(NC(=O)c2ccccc2)s1 [CAI0012, N-(5-Sulfamoyl-1,3,4-thiadiazol-2-yl)benzamide]
MIC ([6]; TSB, Table 1, read-out: MIC): 4 µg/mL (≈ 14.1 µM)
MIC [6, 29]: 4 µg/mL (≈ 14.1 µM)
MIC ([7]; E417HM965, TSB, Table 1, read-out: MIC): 2 µg/mL (≈ 7.03 µM)
MIC ([7]; E417HM965, TSB, Table 7, read-out: MIC in TSB): 2 µg/mL (≈ 7.03 µM)
MIC ([8]; TSB, Table 1, read-out: MIC): 1 µg/mL (≈ 3.52 µM)
MIC [8, 29]: 1 µg/mL (≈ 3.52 µM)
MIC ([9]; TSB, Table 1, read-out: MIC): 1 µg/mL (≈ 3.52 µM)
MIC [9, 29]: 1 µg/mL (≈ 3.52 µM)
MIC ([10]; TSB, Table 1, read-out: MIC): 4 µg/mL (≈ 14.1 µM)
MIC [10, 29]: 4 µg/mL (≈ 14.1 µM)
MIC ([11]; TSB, Table 1, read-out: MIC): 4 µg/mL (≈ 14.1 µM)
MIC [11, 29]: 4 µg/mL (≈ 14.1 µM)
MIC ([12]; TSB, Table 1, read-out: MIC): 8 µg/mL (≈ 28.1 µM)
MIC [12, 29]: 8 µg/mL (≈ 28.1 µM)
MIC ([13]; TSB, Table 1, read-out: MIC): 4 µg/mL (≈ 14.1 µM)
MIC [13, 29]: 4 µg/mL (≈ 14.1 µM)
MIC ([14]; TSB, read-out: MIC): > 64 µg/mL
MIC ([15]; TSB, read-out: MIC): > 64 µg/mL
MIC [16, 30]: > 64 µg/mL
MIC [17, 30]: > 64 µg/mL
MIC [18, 30]: > 64 µg/mL
MIC [19, 30]: > 64 µg/mL
MIC ([20]; ATCC334, MRS broth, 5% CO2, 48 hours, read-out: MIC): > 64 µg/mL
MIC ([21]; MRS broth, 5% CO2, 48 hours, read-out: MIC): > 64 µg/mL
